Here are results for 23 molecules from US9233978B2, “6-fused heteroaryldihydropyrimidines for the treatment and prophylaxis of hepatitis B virus infection” (Hoffmann-La Roche Inc., priority 2014, dated 2016).

In this assay the test system is HBV. As to the kind of experiment: Anti-HBV activity in vitro, HepG2.2.15 cells, extracellular HBV DNA by qPCR. In kind it is cell-based. Particulars: Hepatitis B virus, HepG2.2.15, 120 h, HepG2.2.15 cells; HBV replication inhibited by 50%, extracellular HBV DNA by qPCR; five days after compound treatment; read-out: EC50. An excerpt: HepG2.2.15 and HepDE19 are stably-transfected cell lines containing the HBV genome. Both cell lines are derived from the hepatoblastoma cell line Hep G2 (American Type Culture Collection, ATCC® HB-8065™) by the published procedures described in references: MA Selles et al. Proc. Natl. Acad. Sci. USA 1987, 84, 1005-1009 and H Guo et al. Journal of Virology 2007, 81, 12472-12484, respectively. Both cell lines were maintained in Dulbecco's modified Eagle's medium (DMEM)-F12 medium supplemented with 10% fetal bovine serum, 100 U/mL penicillin, 100 μg/mL streptomycin, and 0.5 mg/mL of G418.
While HepG2.2.15 cells constitutively support HBV replication and production of virus particles, HepDE19 cells are inducible by tetracycline. Addition of 1 μg/mL tetracycline in culture medium suppresses HBV replication in HepDE19 cells, whereas switching to tetracycline-free medium resumes this process.
HepG2.2.15 cells were seeded into 96-well plates (3×10^4 cells in 100 μL media per well) and incubated overnight at 37° C. The test compounds were serially half-log diluted in DMSO, then diluted 100 times in culture media. 100 μL of diluted compounds were added into the plates to reach 0.5% final concentration of DMSO in every well. Five days after compound treatment, culture supernatant was collected for further analysis.
For quantitative PCR detection of extracellular HBV DNA, 100 μL of culture supernatant was collected and processed in MagNA Pure 96 Nucleic Acid Purification System (Roche Applied Science) for viral DNA extraction. The extracted samples were subjected to HBV DNA quantification by qPCR.
(In general: Quantitative PCR measures a nucleic acid by following its amplification.)
Broadly, the EC50 is the concentration giving half of the maximal effect. For the molecule `CCOC(=O)C1=C(CN2CCN3C(=O)N(C(C)(C)C)C[C@H]3[C@@H]2C(=O)O)NC(c2nccs2)=N[C@H]1c1cccc(F)c1Cl` (single isomer, unassigned) [Example 87A], the half-maximal effective concentration (EC50) was 0.062 µM.

Turning to `COC(=O)C1=C(CN2CCN3C(=O)OC(C)(C)[C@@]3(CC(=O)O)C2)NC(c2nccs2)=N[C@H]1c1ccc(F)cc1Cl` (single isomer, unassigned) [Example 90B], the concentration giving a half-maximal response (EC50) worked out at 0.3 µM.

As to `COC(=O)C1=C(CN2CCN3[C@H](CNS3(=O)=O)C2)NC(c2nccs2)=N[C@H]1c1ccc(F)cc1Cl` [Example 17, Methyl (4R)-6-[[(3aS)-1,1-dioxo-2,3,3a,4,6,7-hexahydro-[1,2,5]thiadiazolo[2,3-a]pyrazin-5-yl]methyl]-4-(2-chloro-4-fluoro-phenyl)-2-thiazol-2-yl-1,4-dihydropyrimidine-5-carboxylate], the EC50 was determined as 0.039 µM.

For `COC(=O)C1=C(CN2CCN3C(=O)NC[C@H]3C2)NC(c2nccs2)=N[C@H]1c1ccc(F)cc1Cl` [Example 12, Methyl (4R)-6-[[(8aS)-3-oxo-1,2,5,6,8,8a-hexahydroimidazo[1,5-a]pyrazin-7-yl]methyl]-4-(2-chloro-4-fluoro-phenyl)-2-thiazol-2-yl-1,4-dihydropyrimidine-5-carboxylate], the half-maximal effective concentration (EC50) stood at 0.149 µM.

As to `COC(=O)C1=C(CN2CCN3C(=O)NC(=O)[C@@H]3C2)NC(c2nccs2)=N[C@H]1c1ccc(F)cc1Cl` [Example 16, Methyl (4R)-6-[[(8aS)-1,3-dioxo-5,6,8,8a-tetrahydroimidazo[1,5-a]pyrazin-7-yl]methyl]-4-(2-chloro-4-fluoro-phenyl)-2-thiazol-2-yl-1,4-dihydropyrimidine-5-carboxylate], the half-maximal effective concentration (EC50) is 0.041 µM.

For the molecule `COC(=O)C1=C(CN2CCN3C(=O)OC[C@H]3C2)NC(c2nccs2)=N[C@H]1c1ccc(F)cc1Cl` [Example 3, Methyl (4R)-6-[[(8aR)-3-oxo-5,6,8,8a-tetrahydro-1H-oxazolo[3,4-a]pyrazin-7-yl]methyl]-4-(2-chloro-4-fluoro-phenyl)-2-thiazol-2-yl-1,4-dihydropyrimidine-5-carboxylate], the EC50 was found to be 0.023 µM.

For the molecule `COC(=O)C1=C(CN2CCN3C(=O)CC[C@H]3C2)NC(c2nccs2)=N[C@H]1c1ccc(F)cc1Cl` [Example 5, Methyl (4R)-6-[[(8aS)-6-oxo-1,3,4,7,8,8a-hexahydropyrrolo[1,2-a]pyrazin-2-yl]methyl]-4-(2-chloro-4-fluoro-phenyl)-2-thiazol-2-yl-1,4-dihydropyrimidine-5-carboxylate], the concentration for a half-maximal effect (EC50) came out at 0.159 µM.

For the molecule `CCOC(=O)C1=C(CN2CCN3C(=O)CC[C@@H]3C2)NC(c2nccs2)=N[C@H]1c1ccc(F)c(F)c1` [Example 9, Ethyl (4 S)-6-[[(8aR)-6-oxo-1,3,4,7,8,8a-hexahydropyrrolo[1,2-a]pyrazin-2-yl]methyl]-4-(3,4-difluorophenyl)-2-thiazol-2-yl-1,4-dihydropyrimidine-5-carboxylate], the EC50 turned out to be 0.064 µM.

In the case of `CCOC(=O)C1=C(CN2CCN3C(=O)CC[C@@H]3C2)NC(c2nccs2)=N[C@H]1c1ccc(F)cc1Br` [Example 8, Ethyl (4R)-6-[[(8aR)-6-oxo-1,3,4,7,8,8a-hexahydropyrrolo[1,2-a]pyrazin-2-yl]methyl]-4-(2-bromo-4-fluoro-phenyl)-2-thiazol-2-yl-1,4-dihydropyrimidine-5-carboxylate], the EC50 was determined as 0.011 µM.

On to `COC(=O)C1=C(CN2CCN3C(=O)OCCC3C2)NC(c2nccs2)=N[C@H]1c1ccc(F)cc1Cl` (stereo partly drawn) [Example 1, Methyl (4R)-4-(2-chloro-4-fluoro-phenyl)-6-[(6-oxo-1,3,4,8,9,9a-hexahydropyrazino[1,2-c][1,3]oxazin-2-yl)methyl]-2-thiazol-2-yl-1,4-dihydropyrimidine-5-carboxylate], for which the concentration for a half-maximal effect (EC50) worked out at 0.104 µM.

On to `COC(=O)C1=C(CN2CCN3C(=O)N([C@H]4C[C@@H](C(=O)O)C4)CC3C2)NC(c2nccs2)=N[C@H]1c1ccc(F)cc1Cl` (stereo in doubt) [Example 40, 3-[(8aR)-7-[[(4R)-4-(2-chloro-4-fluoro-phenyl)-5-methoxycarbonyl-2-thiazol-2-yl-1,4-dihydropyrimidin-6-yl]methyl]-3-oxo-5,6,8,8a-tetrahydro-1H-imidazo[1,5-a]pyrazin-2-yl]cyclobutanecarboxylic acid], for which the 50% effective concentration (EC50) was found to be 0.034 µM.

On to `CCOC(=O)C1=C(CN2CCN3C(=O)N(C(C)(C)C)C[C@H]3[C@@H]2CO)NC(c2nccs2)=N[C@H]1c1cccc(F)c1Cl` (single isomer, unassigned) [Example 103A], for which the EC50 came to 0.14 µM.

With `CCOC(=O)C1=C(CN2CCN3C(=O)N(C(C)C)C[C@H]3C2)NC(c2nccs2)=N[C@H]1c1cccc(F)c1Cl` (single isomer, unassigned) [Example 104A], the EC50 was determined as 0.131 µM.

In the case of `CCOC(=O)C1=C(CN2CCN3C(=O)N([C@H](C)CC(=O)O)C[C@@H]3C2)NC(c2nccs2)=N[C@H]1c1cccc(F)c1Cl` [Example 57, (R)-6-[(S)-2-((R)-2-Carboxy-1-methyl-ethyl)-3-oxo-hexahydro-imidazo[1,5-a]pyrazin-7-ylmethyl]-4-(2-chloro-3-fluoro-phenyl)-2-thiazol-2-yl-1,4-dihydro-pyrimidine-5-carboxylic acid ethyl ester], the EC50 is 0.032 µM.

Turning to `CCOC(=O)C1=C(CN2CCN3C(=O)N(C(C)(C)C)C[C@@H]3[C@H]2CO)NC(c2nccs2)=N[C@H]1c1cccc(F)c1Cl` (single isomer, unassigned) [Example 103B], the 50% effective concentration (EC50) was found to be 0.01 µM.

For the molecule `CCOC(=O)C1=C(CN2CCN3C(=O)N(CC(F)(F)C(=O)O)C[C@@H]3C2)NC(c2nccs2)=N[C@H]1c1ccc(F)c(F)c1C` [Example 96, (S)-6-[(S)-2-(2-Carboxy-2,2-difluoro-ethyl)-3-oxo-hexahydro-imidazo[1,5-a]pyrazin-7-ylmethyl]-4-(3,4-difluoro-2-methyl-phenyl)-2-thiazol-2-yl-1,4-dihydro-pyrimidine-5-carboxylic acid ethyl ester], the 50% effective concentration (EC50) stood at 0.15 µM.

For the molecule `COC(=O)C1=C(CN2CCN3C(=O)N(CCCC(C)(C)CO)CC3C2)NC(c2nccs2)=N[C@H]1c1ccc(F)cc1Cl` (stereo partly drawn) [Example 69, Methyl (4R)-4-(2-chloro-4-fluoro-phenyl)-6-[[2-(5-hydroxy-4,4-dimethyl-pentyl)-3-oxo-5,6,8,8a-tetrahydro-1H-imidazo[1,5-a]pyrazin-7-yl]methyl]-2-thiazol-2-yl-1,4-dihydropyrimidine-5-carboxylate], the EC50 was determined as 0.013 µM.

`CCOC(=O)C1=C(CN2CCN3C(=O)N(CC(C)(C)O)C[C@H]3C2)NC(c2nccs2)=N[C@H]1c1cccc(F)c1Cl` (single isomer, unassigned) [Example 106A]: the half-maximal effective concentration (EC50) is 0.032 µM.

In the case of `COC(=O)C1=C(CN2CCN3C(=O)COCC3C2)NC(c2nccs2)=N[C@H]1c1ccc(F)cc1Cl` (stereo partly drawn) [Example 2, Methyl (4R)-4-(2-chloro-4-fluoro-phenyl)-6-[(4-oxo-6,7,9,9a-tetrahydro-1H-pyrazino[2,1-c][1,4]oxazin-8-yl)methyl]-2-thiazol-2-yl-1,4-dihydropyrimidine-5-carboxylate], the 50% effective concentration (EC50) turned out to be 0.054 µM.

Regarding `CCOC(=O)C1=C(CN2CCN3C(=O)N([C@@H](C)CC(=O)O)C[C@@H]3C2)NC(c2nccs2)=N[C@H]1c1cccc(F)c1Cl` [Example 58, (R)-6-[(S)-2-((S)-2-Carboxy-1-methyl-ethyl)-3-oxo-hexahydro-imidazo[1,5-a]pyrazin-7-ylmethyl]-4-(2-chloro-3-fluoro-phenyl)-2-thiazol-2-yl-1,4-dihydro-pyrimidine-5-carboxylic acid ethyl ester], the EC50 turned out to be 0.019 µM.

As to `COC(=O)C1=C(CN2CCN3C(=O)N([C@H]4CCC[C@@H]4C(=O)O)C[C@@H]3C2)NC(c2nccs2)=N[C@H]1c1ccc(F)cc1Cl` [Example 52, (1S,2S)-2-[(8aS)-7-[[(4R)-4-(2-chloro-4-fluoro-phenyl)-5-methoxycarbonyl-2-thiazol-2-yl-1,4-dihydropyrimidin-6-yl]methyl]-3-oxo-5,6,8,8a-tetrahydro-1H-imidazo[1,5-a]pyrazin-2-yl]cyclopentanecarboxylic acid], the concentration for a half-maximal effect (EC50) came to 0.03 µM.

On to `CCOC(=O)C1=C(CN2CCN3C(=O)N(CC4CC4)C[C@H]3[C@@H]2C(=O)O)NC(c2nccs2)=N[C@H]1c1cccc(F)c1Cl` (single isomer, unassigned) [Example 97A], for which the concentration for a half-maximal effect (EC50) came out at 0.037 µM.

For `COC(=O)C1=C(CN2CCN3C(=O)N(CC(C)(C)C(=O)O)C[C@@H]3C2)NC(c2nccs2)=NC1c1ccc(Cl)cc1` (mixture of isomers) [Example 77, 3-[(8aS)-7-[[4-(4-chlorophenyl)-5-methoxycarbonyl-2-thiazol-2-yl-1,4-dihydropyrimidin-6-yl]methyl]-3-oxo-5,6,8,8a-tetrahydro-1H-imidazo[1,5-a]pyrazin-2-yl]-2,2-dimethyl-propanoic acid], the EC50 was 0.146 µM.
